Literature values in patent publication US11154558B2, “Prevention of atherosclerotic events with direct factor Xa inhibitors” (Adams Pharmaceuticals LLC, priority 2016, dated 2021).
Like-named read-outs stand apart in the source and are kept apart here.

Tests used:
[1] = usual dose about 15 mg to about 20 mg per day
[2] = tested on: atherosclerotic plaques in ApoE^−/−mice
[3] = human, in vivo
[4] = human, in vivo; remark: listed apart in the source
hERG = hERG (Homo sapiens, UniProt Q12809)
[5] = ApoE−/− mice treated with rivaroxaban

Sequence of hERG (Q12809 whole entry): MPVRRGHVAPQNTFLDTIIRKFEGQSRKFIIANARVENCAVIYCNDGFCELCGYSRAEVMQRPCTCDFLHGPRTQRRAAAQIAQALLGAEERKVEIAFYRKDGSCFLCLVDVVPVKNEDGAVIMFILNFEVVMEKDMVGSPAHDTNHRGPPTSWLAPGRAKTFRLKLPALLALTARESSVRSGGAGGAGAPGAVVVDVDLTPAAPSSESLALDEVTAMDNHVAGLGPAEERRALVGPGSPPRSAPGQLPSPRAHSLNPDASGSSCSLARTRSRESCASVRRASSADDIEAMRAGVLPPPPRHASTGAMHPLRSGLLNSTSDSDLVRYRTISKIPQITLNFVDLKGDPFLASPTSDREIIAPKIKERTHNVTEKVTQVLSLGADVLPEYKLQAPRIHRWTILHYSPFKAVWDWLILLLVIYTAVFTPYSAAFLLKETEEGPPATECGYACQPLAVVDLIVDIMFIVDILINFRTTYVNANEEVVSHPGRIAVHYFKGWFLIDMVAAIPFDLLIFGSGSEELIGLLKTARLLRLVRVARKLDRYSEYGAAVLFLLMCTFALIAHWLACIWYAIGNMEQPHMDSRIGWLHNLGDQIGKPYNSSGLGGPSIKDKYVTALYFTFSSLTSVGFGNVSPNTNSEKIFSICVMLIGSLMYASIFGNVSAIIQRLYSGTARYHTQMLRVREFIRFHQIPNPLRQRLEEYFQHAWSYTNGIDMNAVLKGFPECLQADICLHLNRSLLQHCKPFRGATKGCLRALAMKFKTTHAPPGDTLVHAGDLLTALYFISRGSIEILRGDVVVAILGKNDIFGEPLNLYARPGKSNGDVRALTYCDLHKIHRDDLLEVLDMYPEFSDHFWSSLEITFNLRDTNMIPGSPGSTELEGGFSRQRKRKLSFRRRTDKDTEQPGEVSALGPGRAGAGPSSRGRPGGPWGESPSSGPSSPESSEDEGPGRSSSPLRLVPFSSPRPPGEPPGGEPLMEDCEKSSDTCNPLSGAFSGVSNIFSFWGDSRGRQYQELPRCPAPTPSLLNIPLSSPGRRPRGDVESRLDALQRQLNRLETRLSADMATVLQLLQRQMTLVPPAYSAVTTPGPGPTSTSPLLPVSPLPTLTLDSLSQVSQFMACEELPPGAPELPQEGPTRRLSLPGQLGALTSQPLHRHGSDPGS

Compound	risk of a major bleeding event ([1]; one reported study)	risk of a major bleeding event ([1]; second study)	accumulation of macrophages in plaques [2, 5]	atherosclerotic plaque stability and plaque progression [2, 5]	collagen contents in atherosclerotic plaques [2, 5]	expression of matrix metallopeptidase-9 (MMP-9) [2, 5]	lipid deposition in plaques [2, 5]	plasma levels of FXa or thrombin antithrombin ([2]; ApoE−/− mice, administration of rivaroxaban)	direct effect on platelet aggregation (platelet aggregation)	prevalence of major bleeding versus placebo [3]	patients affected by bleeding (major bleeding events) [4]	hERG affinity (hERG)
O=C(NC[C@H]1CN(c2ccc(N3CCOCC3=O)cc2)C(=O)O1)c1ccc(Cl)s1 [rivaroxaban]	4.3%	1.7%	reduced accumulation	stabilized atherosclerotic plaques and attenuated plaque progression	increased collagen contents	decreased expression	decreased lipid deposition	did not change	no direct effect on platelet aggregation	–	–	–
COc1ccc(-n2nc(C(N)=O)c3c2C(=O)N(c2ccc(N4CCCCC4=O)cc2)CC3)cc1 [apixaban]	–	–	–	–	–	–	–	–	no direct effect on platelet aggregation	no increased prevalence of major bleeding	1.7%	–
COc1ccc(NC(=O)c2ccc(C(=N)N(C)C)cc2)c(C(=O)Nc2ccc(Cl)cn2)c1 [Betrixaban]	–	–	–	–	–	–	–	–	–	–	–	low hERG affinity
